The text below walks through data of ChEMBL document CHEMBL3301361, “Experimental in vitro DMPK and physicochemical data on a set of publicly disclosed compounds”.

≈ marks a conversion by molar mass, not a printed value.

Data set [1] is described as follows: in vitro. Particulars: human, hepatocytes.
The nature of data set [2]: physchem. Particulars: octan-1-ol/water, pH 7.4, LogD7.4.
Data set [3] in a line: physchem. Particulars: pH 7.4 buffer.
Data set [4] in a line: in vitro. Particulars: human, plasma, PPB.
A short description of data set [5]: in vitro. Particulars: SD, HW or BN, rat, plasma.
Data set [6] can be described thus: in vitro. As to conditions: human.
Data set [7] can be described thus: in vitro. Particulars: hepatocytes.

The term hepatocyte CLint denotes a measure of how fast metabolising enzymes remove a compound, apart from limits set by blood flow. A high value points to rapid turnover. The compound `O=C(O)CC[C@@H](Cc1ccc(OCc2ccccc2)cc1)NC(=O)CCCCCCc1ccccc1` came in with a hepatocyte CLint in data set [1] of 17.4 µL/min/1e6 cells.

In turn, `Clc1ccc(Cn2c(-c3nn[nH]n3)cc3ccccc32)cc1Cl` showed a hepatocyte CLint in data set [1] of 12.9 µL/min/1e6 cells.

Consider `Nc1c(-c2ccccc2)nc(Cl)nc1-c1ccccc1`, for which, in data set [1], the hepatocyte CLint came to 46.8 µL/min/1e6 cells.

In data set [1], `O=C(O)C1CSC(c2ccccc2Cl)N1C(=O)c1ccc(Cl)cc1` (stereo not drawn) came in with a hepatocyte CLint of 15.5 µL/min/1e6 cells.

Compound `Cc1cc(C)nc(Nc2cccc(C(F)(F)F)c2)n1` gave a hepatocyte CLint in data set [1] of 36.3 µL/min/1e6 cells.

In data set [1], `COCCOc1cc(-c2cccc3c(=O)cc(N4CCOCC4)oc23)ccc1NC(=O)CN1CCOCC1` showed a hepatocyte CLint of 43.6 µL/min/1e6 cells.

Take `O=C(CN1CCOCC1)Nc1ccc(-c2cccc3c(=O)cc(N4CCOCC4)oc23)cc1OCCN1CCCC1`: in data set [1], the hepatocyte CLint worked out at 5.5 µL/min/1e6 cells.

`COc1ncccc1-c1cccc2c(N)c3c(nc12)CN(C1CCC1)C3=O` returned a hepatocyte CLint in data set [1] of 4.88 µL/min/1e6 cells.

One may read the logD as lipophilicity at a set pH, counting ionised and neutral species. The term solubility (thermodynamic) denotes solubility found after equilibrating the solid with the medium. For orientation: fraction unbound means free concentration divided by total concentration. By microsomal CLint is commonly meant a measure of how fast metabolising enzymes remove a compound, apart from limits set by blood flow. Read a high microsomal CLint as faster metabolism. With `O=C1NC(=O)C(c2cnc3ccccn23)=C1c1cn2c3c(cccc13)CN(C(=O)N1CCOCC1)CC2`, the logD in data set [2] was determined as 1.79. In addition, the solubility (thermodynamic) in data set [3] came out at 0.6 µM (≈ 0.298 µg/mL). The fraction unbound at 5 h in data set [4] was 0.142; in data set [5], 0.114. In data set [6] (liver microsomes), this compound displayed a microsomal CLint of 42 µL/min/mg. Also, the hepatocyte CLint in data set [7] was 38 µL/min/1e6 cells.

Regarding `COc1cc(N2CCN(C(=O)[C@@H](C)O)CC2)ccc1Nc1ncc(Cl)c(-c2cnc3ccccn23)n1`, the hepatocyte CLint in data set [1] stood at 12.6 µL/min/1e6 cells.

`Cc1ccc(N2CC(COc3ccc(-c4noc(C)n4)cc3)C2)nn1`: the logD in data set [2] was 2.62. In addition, in data set [3], the thermodynamic solubility was 129 µM (≈ 43.5 µg/mL). Moreover, the fraction unbound at 5 h in data set [4] was 0.062; in data set [5], 0.0488. Also, the microsomal CLint in data set [6] (microsomes) was determined as 26.3 µL/min/mg. Also, in data set [7], the hepatocyte CLint came to 6 µL/min/1e6 cells.

Turning to `Cc1ccc(S(=O)(=O)Nc2c(C(=O)NC3CCCCC3)c(C)nn2-c2ccccc2)cc1`, the logD in data set [2] came out at 1.68. In data set [3], this compound returned a thermodynamic solubility of 1410 µM (≈ 639 µg/mL). The fraction unbound at 5 h in data set [4] is 0.0014; in data set [5], 0.0214. The same compound had a microsomal CLint in data set [6] (liver microsomes) of 38 µL/min/mg. Moreover, in data set [7], the hepatocyte CLint was found to be 12 µL/min/1e6 cells.

`Cc1ccc(S(=O)(=O)Nc2c(C(=O)NCC(C)(C)C)c(C)nn2-c2ccccc2)cc1` registered a log distribution coefficient (logD) in data set [2] of 1.46. The fraction unbound at 5 h is 0.0082 in data set [4] and 0.0335 in data set [5]. For the same compound, in data set [6] (microsomes), the microsomal CLint was determined as 27 µL/min/mg. This compound also gave a hepatocyte CLint in data set [7] of 18 µL/min/1e6 cells.

On to `CCC(C)NC(=O)c1c(C)nn(-c2ccccc2)c1NS(=O)(=O)c1ccc(C)cc1` (stereo not drawn), for which the logD in data set [2] stood at 0.66. For the same compound, the free fraction (fraction unbound) at 5 h was 0.0059 in data set [4] and 0.0335 in data set [5]. In data set [6] (microsomes), this compound had a microsomal CLint of 15.7 µL/min/mg. Further, in data set [7], the hepatocyte CLint was 17.3 µL/min/1e6 cells.

In data set [2], `Cc1ccc(S(=O)(=O)Nc2c(C(=O)NC(C)C(C)(C)C)c(C)nn2-c2ccccc2)cc1` (stereo not drawn) came in with a logD of 1.21. For the same compound, the fraction unbound at 5 h was 0.0127 in data set [4] and 0.0457 in data set [5]. This compound registered a microsomal CLint in data set [6] (liver microsomes) of 31 µL/min/mg. The compound also displayed a hepatocyte CLint in data set [7] of 7 µL/min/1e6 cells.

Turning to `Cc1ccc(S(=O)(=O)Nc2c(C(=O)N[C@H](C)C(C)(C)C)c(C)nn2-c2ccccc2)cc1`, in data set [2], the logD came to 1.2. The compound further came in with a thermodynamic solubility in data set [3] of 1000 µM (≈ 455 µg/mL). The fraction unbound at 5 h in data set [4] was 0.0081; in data set [5], 0.0374. This compound gave a microsomal CLint in data set [6] (liver microsomes) of 42 µL/min/mg. Besides, in data set [7], the hepatocyte CLint came to 8 µL/min/1e6 cells.

For `Cc1ccc(S(=O)(=O)Nc2c(C(=O)N[C@@H](C)C(C)(C)C)c(C)nn2CC(F)(F)F)cc1`, the logD in data set [2] was determined as 0.93. Besides, the fraction unbound at 5 h in data set [4] is 0.0142; in data set [5], 0.0274. In addition, the microsomal CLint in data set [6] (liver microsomes) came to 17 µL/min/mg. Also, in data set [7], the hepatocyte CLint came to 18 µL/min/1e6 cells.

The compound `COCC(C)n1nc(C)c(C(=O)N[C@@H](C)C(C)(C)C)c1NS(=O)(=O)c1ccc(C)cc1` (stereo partly drawn) showed a logD in data set [2] of 0.61. In addition, the fraction unbound at 5 h in data set [4] was 0.0836; in data set [5], 0.139. The microsomal CLint in data set [6] (liver microsomes) worked out at 6 µL/min/mg. In data set [7], this compound displayed a hepatocyte CLint below 3 µL/min/1e6 cells.

Consider `COCCC(C)n1nc(C)c(C(=O)N[C@@H](C)C(C)(C)C)c1NS(=O)(=O)c1ccc(C)cc1` (stereo partly drawn), for which the logD in data set [2] amounted to 0.78. Also, the results for the fraction unbound at 5 h in data set [4] and in data set [5] were 0.101 and 0.276, respectively. The compound also had a microsomal CLint in data set [6] (microsomes) of 3.9 µL/min/mg. For the same compound, the hepatocyte CLint in data set [7] was 9.9 µL/min/1e6 cells.

On to `Cc1ccc(S(=O)(=O)Nc2c(C(=O)N[C@@H](C)C(C)(C)C)c(C)nn2C2CCSCC2)cc1`, for which, in data set [2], the logD was 1.29. The compound also displayed a solubility (thermodynamic) in data set [3] of 912 µM (≈ 437 µg/mL). Further, the free fraction (fraction unbound) at 5 h is 0.0532 in data set [4] and 0.0661 in data set [5]. Also, in data set [6] (liver microsomes), the microsomal CLint was 25 µL/min/mg. The compound also gave a hepatocyte CLint in data set [7] of 5 µL/min/1e6 cells.

Take `O=C(O)C1(c2ccc(-c3ccc(Cl)c(Cl)c3)c(F)c2)CC1`: the hepatocyte CLint in data set [1] was found to be 38.9 µL/min/1e6 cells.

Consider `CCC[C@@H](CNC(=O)c1nc(Cl)c(N)nc1N)[N+](C)(C)CCCc1ccc(OC)cc1`, for which, in data set [2], the logD was found to be 0.4. For the same compound, the fraction unbound at 5 h in data set [4] is 0.511; in data set [5] it was 0.454. In data set [6] (microsomes), this compound displayed a microsomal CLint of 87.1 µL/min/mg. In data set [7], this compound came in with an intrinsic clearance (hepatocyte CLint) of 24 µL/min/1e6 cells.

With `NC1(c2ccc(-c3ncc4cnccc4c3-c3ccccc3)cc2)CCC1`, the hepatocyte CLint in data set [1] is above 150 µL/min/1e6 cells.

For `NC1(c2ccc(-c3ncc4cccnc4c3-c3ccccc3)cc2)CCC1`, the hepatocyte CLint in data set [1] was determined as 19.5 µL/min/1e6 cells.

For the compound `NC1(c2ccc(-c3c(-c4ccccc4)ccc4ccnn34)cc2)CCC1`, the hepatocyte CLint in data set [1] is 10.2 µL/min/1e6 cells.
